Test results: patent US7691874B2, “Neuroprotective properties of dextrorotatory morphinans” (priority 2004, dated 2010)
Marks after values point to notes of the source that are not given here.

Legend:
[1] = tested on: C57 BL/6 mice; experiment: Locomotor activity and locomotor pattern following repeated administration of morphinans or PCP; type: in vivo; conditions: for locomotor pattern (tracings): 40 mg/kg i.p. (PCP 5 mg/kg), FIG. 3; for marginal activity (circling behaviour; absolute turn angular): 20 or 40 mg/kg i.p./day x 7 (PCP 2.5 or 5 mg/kg), 3-min period; for marginal activity (circling behaviour; absolute turn angular) / locomotor activity (total distance moved): vs saline; for locomotor activity (total distance moved): 20 or 40 mg/kg i.p./day x 7 days, 30 min after final treatment
[2] = tested on: MA-treated mice; experiment: Nigral TH-IR in MA-treated mice; conditions: 24 mg/kg i.p.
[3] = tested on: kainate or maximal electric shock; conditions: kainate (24) or maximal electric shock (27); cited from earlier work
[4] = tested on: MPTP-treated mice; experiment: Hypokinesia (reduction in locomotor activity) induced by MPTP; type: in vivo; conditions: 12 or 24 mg/kg i.p. 30 min before MPTP (20 mg/kg/day x 7), last three days
[5] = tested on: MA-treated mice; experiment: Striatal dopamine and metabolites in MA-treated mice; type: in vivo; conditions: for effect on MA-induced reductions in striatal DA, DOPAC and HVA: 24 mg/kg pretreatment; for Concentration DA in the striatum: 3 days after final MA
Excerpt: Mice were sacrificed at 3 days after final MA injection.

[6] = tested on: C57 BL/6 mice; experiment: Conditioned place preference (psychological dependence) following repeated administration of morphinans or PCP; type: in vivo; conditions: 20 or 40 mg/kg i.p. (PCP 2.5 or 5 mg/kg); vs saline
Experimental: On day 14, the guillotine doors were raised. […] Data were analyzed between 0900 and 1700 hr.

[7] = tested on: LPS-treated mice; experiment: Hypokinesia induced by intrastriatal LPS; conditions: 12 or 24 mg/kg, twice before bilateral intrastriatal LPS
Experimental: Male mice were anesthetized with chloral hydrate (200 mg/kg, i.p.) and positioned in a small-animal stereotaxic apparatus. […] LPS (2 μg in a volume of 2 μl of PBS) was injected into both sides of the striatum over a period of 2 min, and the injection needle was kept in place for 2 min after the injection. Control animals received striatal injection with PBS.
Ten min after the last treatment with each drug, locomotor activity was measured for 30 min. After measuring the locomotor activity (i.e. 40 min after the last drug injection), the ‘absolute turn angular’ was analyzed in a 3-min monitoring period using an automated video-tracking system (Noldus Information Technology, Wagenin, The Netherlands) to examine locomotor patterns. […] Eight test boxes (40×40×30 cm high) were operated simultaneously by an IBM computer. Animals were studied individually during locomotion in each test box, where they were adapted for 10 min before starting the experiment. […] The distance traveled in cm by the animals in horizontal locomotor activity was analyzed (13, 25, 27). Data were collected and analyzed between 0900 and 1700 hr.

[8] = target: σ1 receptors (Homo sapiens, UniProt Q99720); conditions: cited from earlier work
[9] = tested on: MA-treated mice; experiment: Methamphetamine (MA)-induced hyperthermia; type: in vivo; conditions: 24 mg/kg; MA 7.5 mg/kg i.p. x 4 at 2-h intervals
Experimental: Rectal temperature was recorded at 40 min after each MA treatment. […] Mice were sacrificed at 3 days after final MA injection.
FIGS. 10A-10B show effect of morphinans on the methamphetamine (MA)-induced hyperthermia. Mice received i.p. injections of MA (four injections of 7.5 mg/kg each) at 2-h intervals under the ambient temperature of 22.0±0.5° C. Temperatures were recorded at 40 min after each MA treatment (Arrow=MA injection).

[10] = tested on: LPS-treated mice; experiment: Striatal dopamine and metabolites in LPS-treated mice; type: in vivo; conditions: for effect on LPS-induced reductions in striatal DA, DOPAC and HVA: 24 mg/kg pretreatment; for Concentration DA in the striatum: 3 weeks after LPS
Excerpt: (§1) Control animals received striatal injection with PBS.
Mice were sacrificed at 3 weeks after LPS treatment.

[11] = tested on: NMDA receptor associated PCP sites; conditions: cited from earlier work
[12] = tested on: MPTP-treated mice; experiment: Striatal dopamine and metabolites (HPLC-EC) in MPTP-treated mice; conditions: for effect on MPTP-induced reductions in striatal DA, DOPAC and HVA: 24 mg/kg pretreatment; for Concentration DA in the striatum: mean ± S.E.M., 8 animals
Experimental: (§2) Each morphinan was administered 30 min prior to every injection of MPTP for last three days (from day 4th to day 7th). Animals were sacrificed 24 h after the last MPTP treatment.
Brains were rapidly removed and cut into 1 mm coronal sections on ice. The striatum was punched using a fine pasteur pipette (3, 21, 22), and stored at −70° C. DA and its metabolites, 3,4-dihydroxyphenylacetic acid (DOPAC) and homovanilic acid (HVA) were measured by HPLC-eletrochemical detection (3, 21, 22). Briefly, the striatum was homogenized in 0.2 M perchloric acid containing 3,4-dihydroxybenzylamine as an internal standard (10 mg wet weight of tissue per ml). The homogenate was centrifuged and a 20-μl aliquot of the supernatant was injected into the HPLC equipped with an ODS-C18 column. The mobile phase was comprised of 26 ml of acetonitrile, 21 ml of tetrahydrofuran and 960 ml of 0.15 M monochloroacetic acid (pH 3.0) containing 50 mg/l of EDTA and 200 mg/l of sodium octyl sulfate. The amount of DA, DOPAC and HVA were determined by comparison of peak height ratio of tissue sample with standards, and were expressed in nanograms per 100 mg of wet weight of tissue.
Each morphinan was administered 30 min before every injection of MPTP for last three days. Animals were sacrificed at 24 h after the last MPTP injection.

[13] = tested on: MA-treated mice; experiment: MA-induced behavioural sensitization; conditions: morphinan 20 mg/kg i.p., last 3 days of wash-out (Ex. 3.12)
Experimental: Morphinans (20 mg/kg, i.p.) were administered last 3 days of wash-out period.

[14] = tested on: cocaine-treated mice; experiment: Cocaine-induced Fos-related antigen-immunoreactivity (FRA-IR) in the striatum; conditions: cocaine 5 mg/kg; morphinan 20 mg/kg i.p.
[15] = tested on: MA-treated mice; experiment: MA-induced FRA-IR in the striatum; conditions: morphinan 20 mg/kg i.p.; MA 1 mg/kg i.p./day x 7
Experimental: Therefore, brains were removed and used for immunocytochemical analysis at 18 h after the final cocaine/MA treatment. The coronal sections containing striatum were processed for FRA immunocytochemistry. […] The FRA antibody was used at 1:2,000 as the optimal dilution. The FRA-IR in the striatum was calculated using image analysis systems with a polaroid digital microscopic camera (Optimas version 6.2).

[16] = tested on: cocaine-treated mice; experiment: Cocaine-induced hyperlocomotion; type: in vivo; conditions: for effect on locomotor activity induced by low dose of cocaine: cocaine 5 mg/kg i.p. x 7 days, morphinan 15 or 30 mg/kg (DF 20 mg/kg) i.p.; for effect on hyperactivity induced by high dose of cocaine: cocaine 20 mg/kg i.p. x 7 days, morphinan 15 or 30 mg/kg i.p. 30 min before
Experimental: FIGS. 34A-34B show effect of morphinans on the cocaine-induced hyperactivity in the mice. Morphinans (15 and 30 mg/kg, i.p.) were administered 30 minutes prior to cocaine (5 and 20 mg/kg, i.p.). Central activity means relatively non-specific locomotor activity in the center of the box. Marginal activity means circling behaviors. All treatments were performed for 7 days.
FIGS. 35A-35D show effect of dimemorfan (DF) on cocaine-induced hyperactivity in the mice. DF (20 mg/kg, i.p.) was administered 30 minutes prior to cocaine (5 and 20 mg/kg, i.p.). All treatments were performed for 7 days.

[17] = tested on: MA-treated mice; experiment: Hypokinesia induced by MA; type: in vivo; conditions: 12 and 24 mg/kg; 3 days after final MA
[18] = tested on: MA-treated mice; experiment: MA-induced hyperlocomotion; type: in vivo; conditions: morphinan 20 mg/kg i.p. 30 min before MA 1 mg/kg i.p./day x 7
Experimental: FIGS. 39A-39D show effect of morphinans on the MA-induced hyperactivity in the mice. Each morphinan (20 mg/kg, i.p.) was administered 30 minutes prior to MA (1 mg/kg, i.p.). All treatments were performed for 7 days.

[19] = tested on: MPTP-treated mice; experiment: Nigral tyrosine hydroxylase-like immunoreactivity in MPTP-treated mice; conditions: 24 mg/kg i.p.
Experimental: as §2

[20] = tested on: LPS-treated mice; experiment: Nigral TH-IR in LPS-treated mice; type: in vivo; conditions: 24 mg/kg i.p.
Excerpt: FIGS. 8A-8B. […] Magnification=40×.
as §1

[21] = morphinan 12 (mg/kg) + MA, mean ± S.E.M., 8 animals
[22] = morphinan 12 (mg/kg) + LPS, mean ± S.E.M., 8 animals

σ1 receptors, sequence (Q99720 whole entry): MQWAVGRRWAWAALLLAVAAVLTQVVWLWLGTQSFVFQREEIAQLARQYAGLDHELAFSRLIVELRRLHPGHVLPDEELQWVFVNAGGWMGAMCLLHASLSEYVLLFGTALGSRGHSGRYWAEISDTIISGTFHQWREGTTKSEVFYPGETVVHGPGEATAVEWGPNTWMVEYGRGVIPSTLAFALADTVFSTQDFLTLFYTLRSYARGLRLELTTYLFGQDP

Row | Compound | locomotor pattern (tracings) [1] | marginal activity (circling behaviour; absolute turn angular) [1] | locomotor activity (total distance moved) [1] | effect on MA-induced decrease in nigral TH-positive cells [2] | anticonvulsant effect [3] | effect on MPTP-induced reduction in locomotor activity [4] | effect on MA-induced reductions in striatal DA, DOPAC and HVA [5] | Concentration DOPAC in the striatum ([5]; morphinan 12 (mg/kg) + MA) | Concentration HVA in the striatum ([5]; morphinan 12 (mg/kg) + MA) | Concentration DA in the striatum [5, 21] | Concentration DOPAC in the striatum ([5]; morphinan 24 (mg/kg) + MA) | Concentration HVA in the striatum ([5]; morphinan 24 (mg/kg) + MA) | Concentration DA in the striatum ([5]; morphinan 24 (mg/kg) + MA) | conditioned place preference (CPP) [6] | effect on LPS-induced decrease in locomotor activity [7] | affinity for σ1 receptors [8] | effect on MA-induced hyperthermia (rectal temperature) [9] | effect on LPS-induced reductions in striatal DA, DOPAC and HVA [10] | Concentration DOPAC in the striatum ([10]; morphinan 12 (mg/kg) + LPS) | Concentration HVA in the striatum ([10]; morphinan 12 (mg/kg) + LPS) | other results
1 | Cc1ccc2c(c1)[C@@]13CCCC[C@H]1[C@@H](C2)N(C)CC3 [DF, 3-methyl-17-methyl-morphinan] | did not produce significant marginal activity | did not significantly affect marginal activity | comparable to that with saline | significantly attenuated the decrease in TH-positive cells | exhibited anticonvulsant effects | neither AM nor DF affected significantly the locomotor hypoactivity | significantly protected | 79 ± 11 ng/100 mg wet tissue | 79 ± 7 ng/100 mg wet tissue | 603 ± 65 ng/100 mg wet tissue | 94 ± 9^b ng/100 mg wet tissue | 92 ± 10^b ng/100 mg wet tissue | 762 ± 81^b ng/100 mg wet tissue | almost no CPP effects | neither AM nor DF were effective in attenuating locomotor hypoactivity | high affinity ligands | attenuated by all morphinans used in this study | did not alter LPS-induced reductions in DA, DOPAC and HVA levels | 54 ± 7 ng/100 mg wet tissue | 62 ± 8 ng/100 mg wet tissue | Concentration DA in the striatum [10, 22]: 635 ± 65 ng/100 mg wet tissue; Concentration DOPAC in the striatum ([10]; morphinan 24 (mg/kg) + LPS): 59 ± 8 ng/100 mg wet tissue; Concentration HVA in the striatum ([10]; morphinan 24 (mg/kg) + LPS): 63 ± 7 ng/100 mg wet tissue; Concentration DA in the striatum ([10]; morphinan 24 (mg/kg) + LPS): 459 ± 58 ng/100 mg wet tissue; affinity for NMDA receptor associated PCP sites [11]: very low affinities; effect on MPTP-induced reductions in striatal DA, DOPAC and HVA [12]: did not alter reductions in DA, DOPAC and HVA; Concentration DOPAC in the striatum ([12]; morphinan 12 (mg/kg) + MPTP): 44 ± 6 ng/100 mg wet tissue; Concentration HVA in the striatum ([12]; morphinan 12 (mg/kg) + MPTP): 62 ± 7 ng/100 mg wet tissue; Concentration DA in the striatum ([12]; morphinan 12 (mg/kg) + MPTP): 403 ± 55 ng/100 mg wet tissue; Concentration DOPAC in the striatum ([12]; morphinan 24 (mg/kg) + MPTP): 52 ± 7 ng/100 mg wet tissue; Concentration HVA in the striatum ([12]; morphinan 24 (mg/kg) + MPTP): 68 ± 6 ng/100 mg wet tissue; Concentration DA in the striatum ([12]; morphinan 24 (mg/kg) + MPTP): 397 ± 55 ng/100 mg wet tissue; effect on MA-induced behavioural sensitization [13]: significantly reduced; effect on cocaine-induced FRA-IR in the striatum [14]: apparently attenuated; effect on MA-induced FRA-IR in the striatum [15]: apparently attenuated; effect on locomotor activity induced by low dose of cocaine [16]: consistently attenuated locomotor activity induced by a low dose of cocaine; effect on hyperactivity induced by high dose of cocaine [16]: not uniform; effect on MA-induced reduction in locomotor activity [17]: significantly prevented MA-induced reduction in locomotor activity; effect on MA-induced hyperlocomotion [18]: consistently effective in attenuating hyperlocomotion induced by MA
2 | COc1ccc2c(c1)[C@@]13CCCC[C@H]1[C@@H](C2)N(C)CC3 [DM, 3-methoxy-17-methylmorphinan, reference compound] | produced marginal activity | significant increase in marginal activity | significantly increased locomotor activity | significantly attenuated the decrease in TH-positive cells | exhibited anticonvulsant effects | significantly prevented MPTP-induced reduction in locomotor activity | significantly protected | 83 ± 9 ng/100 mg wet tissue | 82 ± 9 ng/100 mg wet tissue | 625 ± 74 ng/100 mg wet tissue | 98 ± 11^b ng/100 mg wet tissue | 94 ± 8^b ng/100 mg wet tissue | 782 ± 72^c ng/100 mg wet tissue | also produced CPP | significantly prevented LPS-induced decrease in locomotor activity | high affinity ligands | attenuated by all morphinans used in this study | significantly protected | 68 ± 7 ng/100 mg wet tissue | 82 ± 9 ng/100 mg wet tissue | effect on MPTP-induced decrease in nigral TH-positive cells [19]: significantly attenuated the decrease in TH-positive cells; effect on LPS-induced reduction in nigral TH-positive cells [20]: significantly attenuated the reduction in TH-positive cells; Concentration DA in the striatum [10, 22]: 612 ± 76 ng/100 mg wet tissue; Concentration DOPAC in the striatum ([10]; morphinan 24 (mg/kg) + LPS): 105 ± 12^b ng/100 mg wet tissue; Concentration HVA in the striatum ([10]; morphinan 24 (mg/kg) + LPS): 98 ± 8^b ng/100 mg wet tissue; Concentration DA in the striatum ([10]; morphinan 24 (mg/kg) + LPS): 892 ± 92^d ng/100 mg wet tissue; effect on MPTP-induced reductions in striatal DA, DOPAC and HVA [12]: significantly protected; Concentration DOPAC in the striatum ([12]; morphinan 12 (mg/kg) + MPTP): 69 ± 9 ng/100 mg wet tissue; Concentration HVA in the striatum ([12]; morphinan 12 (mg/kg) + MPTP): 82 ± 9 ng/100 mg wet tissue; Concentration DA in the striatum ([12]; morphinan 12 (mg/kg) + MPTP): 520 ± 67 ng/100 mg wet tissue; Concentration DOPAC in the striatum ([12]; morphinan 24 (mg/kg) + MPTP): 85 ± 10^b ng/100 mg wet tissue; Concentration HVA in the striatum ([12]; morphinan 24 (mg/kg) + MPTP): 98 ± 11^b ng/100 mg wet tissue; Concentration DA in the striatum ([12]; morphinan 24 (mg/kg) + MPTP): 708 ± 82^b ng/100 mg wet tissue; effect on MA-induced behavioural sensitization [13]: did not alter behavioural sensitization by MA; effect on cocaine-induced FRA-IR in the striatum [14]: Neither DM nor MM affects this induction of FRA-IR; effect on MA-induced FRA-IR in the striatum [15]: did not affect this induction of FRA-IR; effect on locomotor activity induced by low dose of cocaine [16]: enhanced locomotor activity produced by a low dose of cocaine; effect on hyperactivity induced by high dose of cocaine [16]: attenuated; effect on MA-induced reduction in locomotor activity [17]: significantly prevented MA-induced reduction in locomotor activity; effect on MA-induced hyperlocomotion [18]: did not affect MA (1 mg/kg, i.p./day×7)-induced hyperactivity
